In ChEMBL document CHEMBL1140093, “Structure-activity relationships for a novel series of dopamine D2-like receptor ligands based on N-substituted 3-aryl-8-azabicyclo[3.2.1]octan-3-ol” (J Med Chem, 2008) one finds Ki and IC50 data, which are given here for 23 compounds.

In experiment [1] the target is T1, 5-hydroxytryptamine receptor 1A (Homo sapiens, UniProt P08908).
T1 sequence (P08908 whole entry): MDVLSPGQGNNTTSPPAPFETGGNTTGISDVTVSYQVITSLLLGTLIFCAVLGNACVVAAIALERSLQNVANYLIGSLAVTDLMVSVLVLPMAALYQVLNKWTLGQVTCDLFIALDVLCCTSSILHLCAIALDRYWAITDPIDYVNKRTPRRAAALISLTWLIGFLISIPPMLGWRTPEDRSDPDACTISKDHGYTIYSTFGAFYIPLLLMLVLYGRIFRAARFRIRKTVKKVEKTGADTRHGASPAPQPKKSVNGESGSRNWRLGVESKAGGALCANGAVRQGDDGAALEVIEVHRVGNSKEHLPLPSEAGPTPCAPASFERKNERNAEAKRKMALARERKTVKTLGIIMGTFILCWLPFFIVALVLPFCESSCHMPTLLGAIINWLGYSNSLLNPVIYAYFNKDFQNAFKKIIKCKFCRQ
Nature of the experiment: Displacement of [3H]8OH-DPAT from 5HT1A receptor.

Experiment [2] concerns the target T2, D(2) dopamine receptor (Homo sapiens, UniProt P14416). In words: Antagonist activity at dopamine D2 receptor. In kind it is functional.
For experiment [3], the target named is T3, D(3) dopamine receptor (Homo sapiens, UniProt P35462). In words: Antagonist activity at dopamine D3 receptor. The class given is functional.
In a further experiment the target is D(1A) dopamine receptor (Homo sapiens, UniProt P21728). In words: Displacement of [3H]SCH23390 from dopamine D1 receptor. For orientation: Displacement assays read how much labelled ligand stays bound in the presence of the test substance.
The target of experiment [4] is T2, D(2) dopamine receptor. In words: Displacement of [125I]IABN from human dopamine D2L receptor expressed in HEK293 cells. In kind it is cell-based.
For the next experiment, the target named is T4, D(4) dopamine receptor (Homo sapiens, UniProt P21917).
T4 sequence (P21917 whole entry): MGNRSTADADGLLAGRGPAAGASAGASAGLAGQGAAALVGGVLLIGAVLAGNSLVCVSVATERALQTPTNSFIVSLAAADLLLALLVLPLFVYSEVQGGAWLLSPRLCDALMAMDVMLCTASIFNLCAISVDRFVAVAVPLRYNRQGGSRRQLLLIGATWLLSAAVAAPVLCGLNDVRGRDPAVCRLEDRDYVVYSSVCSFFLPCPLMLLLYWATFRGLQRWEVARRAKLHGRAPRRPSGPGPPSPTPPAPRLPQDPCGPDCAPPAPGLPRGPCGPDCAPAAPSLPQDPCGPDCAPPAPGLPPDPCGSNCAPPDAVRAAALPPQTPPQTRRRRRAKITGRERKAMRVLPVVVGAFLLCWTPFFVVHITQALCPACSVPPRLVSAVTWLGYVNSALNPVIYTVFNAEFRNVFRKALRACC
In words: Displacement of [125I]IABN from human dopamine D4 receptor.

Experiment [5] deals with T5, 5-hydroxytryptamine receptor 2C (Homo sapiens, UniProt P28335).
T5 sequence (P28335 whole entry): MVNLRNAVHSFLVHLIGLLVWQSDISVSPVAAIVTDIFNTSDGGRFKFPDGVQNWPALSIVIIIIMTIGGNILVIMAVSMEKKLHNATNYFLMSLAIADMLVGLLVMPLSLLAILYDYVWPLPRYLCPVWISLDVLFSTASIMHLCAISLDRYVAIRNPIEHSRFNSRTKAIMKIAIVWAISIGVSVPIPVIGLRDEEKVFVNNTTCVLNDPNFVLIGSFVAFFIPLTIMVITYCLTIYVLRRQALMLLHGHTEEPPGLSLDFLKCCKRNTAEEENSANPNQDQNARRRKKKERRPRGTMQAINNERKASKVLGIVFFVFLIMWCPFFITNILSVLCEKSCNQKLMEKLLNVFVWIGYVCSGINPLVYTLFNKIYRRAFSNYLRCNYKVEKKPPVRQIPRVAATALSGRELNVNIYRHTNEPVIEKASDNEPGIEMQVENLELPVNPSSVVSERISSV
In words: Displacement of [3H]mesulergine from 5HT2C receptor.

Experiment [6] deals with 5-hydroxytryptamine receptor 2A (Homo sapiens, UniProt P28223). In words: Displacement of [3H]ketanserin from 5HT2A receptor.
Experiment [7] addresses T3, D(3) dopamine receptor. Nature of the experiment: Displacement of [125I]IABN from human dopamine D3 receptor expressed in HEK293 cells. In kind it is cell-based.

T2 sequence (P14416 whole entry): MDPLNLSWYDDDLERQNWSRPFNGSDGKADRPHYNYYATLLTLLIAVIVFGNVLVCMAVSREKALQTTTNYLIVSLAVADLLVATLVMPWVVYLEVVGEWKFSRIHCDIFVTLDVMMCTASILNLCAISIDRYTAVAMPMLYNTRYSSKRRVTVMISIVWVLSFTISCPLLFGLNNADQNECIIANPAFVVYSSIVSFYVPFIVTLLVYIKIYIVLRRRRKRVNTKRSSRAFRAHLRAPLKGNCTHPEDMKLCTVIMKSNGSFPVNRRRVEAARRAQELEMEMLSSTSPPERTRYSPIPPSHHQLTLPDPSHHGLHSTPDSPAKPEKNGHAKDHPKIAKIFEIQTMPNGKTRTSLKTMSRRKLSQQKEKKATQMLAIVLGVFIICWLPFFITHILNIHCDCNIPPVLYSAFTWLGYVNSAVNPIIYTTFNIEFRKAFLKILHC
T3 sequence (P35462 whole entry): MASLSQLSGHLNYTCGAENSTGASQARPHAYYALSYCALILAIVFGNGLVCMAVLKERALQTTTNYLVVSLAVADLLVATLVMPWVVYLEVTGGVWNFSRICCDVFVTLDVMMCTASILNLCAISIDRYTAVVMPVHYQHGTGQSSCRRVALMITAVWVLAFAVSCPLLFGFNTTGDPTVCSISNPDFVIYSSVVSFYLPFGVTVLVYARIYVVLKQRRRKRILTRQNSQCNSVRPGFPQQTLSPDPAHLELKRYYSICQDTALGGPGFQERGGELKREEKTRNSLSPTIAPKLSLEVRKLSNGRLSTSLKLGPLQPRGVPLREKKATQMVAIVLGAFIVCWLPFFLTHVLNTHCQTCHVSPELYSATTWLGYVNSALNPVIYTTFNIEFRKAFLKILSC
Chain of D(1A) dopamine receptor (P21728 whole entry): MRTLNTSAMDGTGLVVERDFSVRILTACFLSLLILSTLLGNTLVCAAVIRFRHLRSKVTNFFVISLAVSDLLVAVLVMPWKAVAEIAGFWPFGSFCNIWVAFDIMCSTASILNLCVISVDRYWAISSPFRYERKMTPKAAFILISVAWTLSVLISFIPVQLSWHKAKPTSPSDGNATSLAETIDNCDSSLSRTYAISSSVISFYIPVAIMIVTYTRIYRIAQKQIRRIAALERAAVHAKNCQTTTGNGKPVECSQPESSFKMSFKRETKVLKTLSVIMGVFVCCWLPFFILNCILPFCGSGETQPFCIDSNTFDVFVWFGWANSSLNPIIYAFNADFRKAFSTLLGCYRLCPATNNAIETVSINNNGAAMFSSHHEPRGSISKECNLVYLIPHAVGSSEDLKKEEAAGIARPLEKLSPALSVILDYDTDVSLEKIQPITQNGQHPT
Chain of 5-hydroxytryptamine receptor 2A (P28223 whole entry): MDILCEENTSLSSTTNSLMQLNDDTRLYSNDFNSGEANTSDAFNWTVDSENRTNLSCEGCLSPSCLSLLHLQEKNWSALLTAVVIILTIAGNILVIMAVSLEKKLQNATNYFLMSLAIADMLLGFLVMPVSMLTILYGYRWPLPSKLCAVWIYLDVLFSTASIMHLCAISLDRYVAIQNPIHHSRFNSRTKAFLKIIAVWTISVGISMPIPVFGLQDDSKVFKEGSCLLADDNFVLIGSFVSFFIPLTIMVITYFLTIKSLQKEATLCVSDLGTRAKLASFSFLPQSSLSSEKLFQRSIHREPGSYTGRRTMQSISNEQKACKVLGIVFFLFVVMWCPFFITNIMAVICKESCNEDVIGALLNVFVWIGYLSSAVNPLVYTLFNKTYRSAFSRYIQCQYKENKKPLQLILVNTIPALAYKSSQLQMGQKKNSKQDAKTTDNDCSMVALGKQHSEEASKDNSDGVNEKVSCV

A word on the Ki: it is a measure of affinity in units of concentration, obtained from inhibition or displacement. The IC50 is the concentration at which inhibition is half-maximal. Read a low IC50 as greater potency. As for `O[C@]1(c2ccc(Cl)cc2)C[C@H]2CC[C@@H](C1)N2Cc1c[nH]c2ccccc12`, the Ki is more than 10000 nM in experiment [1]; 1220 nM on D(1A) dopamine receptor; 33.4 nM at D(2) dopamine receptor [4]; more than 5000 nM at D(4) dopamine receptor; more than 10000 nM in experiment [5]; 4770 nM in experiment [6]. At D(3) dopamine receptor [7], this compound displayed a Ki of 15.5 nM. Also, the IC50 against D(2) dopamine receptor [2] is 48.3 nM; at D(3) dopamine receptor [3], 12.3 nM.

For `O[C@@]1(c2ccc(Cl)c(Cl)c2)C[C@H]2CC[C@@H](C1)N2Cc1c[nH]c2ccccc12`, the Ki in experiment [1] was more than 10000 nM; in experiment [6], 2800 nM; on D(3) dopamine receptor [7], 6.35 nM. For the same compound, the IC50 on D(3) dopamine receptor [3] was 10.2 nM.

As to `O[C@@]1(c2cccc(Cl)c2Cl)C[C@H]2CC[C@@H](C1)N2Cc1c[nH]c2ccccc12`, the Ki at D(2) dopamine receptor [4] was 545 nM; at D(3) dopamine receptor [7] it was 480 nM.

`O[C@@]1(c2ccc(F)cc2)C[C@H]2CC[C@@H](C1)N2Cc1c[nH]c2ccccc12` returned a Ki on D(3) dopamine receptor [7] of 31 nM.

Take `O[C@@]1(c2ccc3ccccc3c2)C[C@H]2CC[C@@H](C1)N2Cc1c[nH]c2ccccc12`: the Ki worked out at 196 nM on D(2) dopamine receptor [4] and 224 nM at D(3) dopamine receptor [7].

Turning to `COc1ccccc1[C@]1(O)C[C@H]2CC[C@@H](C1)N2Cc1c[nH]c2ccccc12`, the Ki on D(2) dopamine receptor [4] came to 2070 nM; on D(3) dopamine receptor [7], 6410 nM.

With `CSc1ccc([C@]2(O)C[C@H]3CC[C@@H](C2)N3Cc2c[nH]c3ccccc23)cc1`, the Ki on D(2) dopamine receptor [4] turned out to be 565 nM; at D(3) dopamine receptor [7], 541 nM.

`O[C@@]1(c2ccc(Cl)cc2)C[C@H]2CC[C@@H](C1)N2Cc1n[nH]c2ccccc12`: the inhibition constant (Ki) at D(2) dopamine receptor [4] is 225 nM; at D(3) dopamine receptor [7] it was 84.7 nM.

On D(3) dopamine receptor [7], `COc1ccc2[nH]cc(CN3[C@@H]4CC[C@H]3C[C@](O)(c3ccc(Cl)cc3)C4)c2c1` came in with a Ki of 21.2 nM.

In the case of `COc1ccc2[nH]cc(CN3[C@@H]4CC[C@H]3C[C@](O)(c3ccc(SC)cc3)C4)c2c1`, the inhibition constant (Ki) at D(2) dopamine receptor [4] was 554 nM; at D(3) dopamine receptor [7], 1210 nM.

`O[C@@]1(c2ccc(Cl)cc2)C[C@H]2CC[C@@H](C1)N2Cc1csc2ccccc12`: the inhibitory constant (Ki) in experiment [1] is 1720 nM; on D(1A) dopamine receptor, 3000 nM; on D(2) dopamine receptor [4], 12.9 nM; on D(4) dopamine receptor, 140 nM; in experiment [5], more than 10000 nM; on D(3) dopamine receptor [7], 3.62 nM. Besides, the figures for the IC50 against D(2) dopamine receptor [2] and at D(3) dopamine receptor [3] were 26.2 nM and 4.2 nM, respectively.

As to `O[C@@]1(c2cccc(Cl)c2Cl)C[C@H]2CC[C@@H](C1)N2Cc1csc2ccccc12`, the Ki stood at 280 nM at D(2) dopamine receptor [4] and 431 nM at D(3) dopamine receptor [7].

Turning to `O[C@@]1(c2ccc(Cl)cc2)C[C@H]2CC[C@@H](C1)N2Cc1coc2ccccc12`, the midpoint of inhibition at D(3) dopamine receptor [3], the IC50, lay at 0.85 nM. Further, the Ki in experiment [5] is more than 10000 nM; at D(3) dopamine receptor [7], 0.71 nM.

Regarding `O[C@]1(c2ccc(Cl)c(Cl)c2)C[C@H]2CC[C@@H](C1)N2Cc1coc2ccccc12`, the values for the Ki on D(2) dopamine receptor [4] and on D(3) dopamine receptor [7] were 1.7 nM and 0.34 nM, respectively.

On D(3) dopamine receptor [7], `O[C@@]1(c2cccc(Cl)c2Cl)C[C@H]2CC[C@@H](C1)N2Cc1coc2ccccc12` returned a Ki of 32.2 nM.

With `O[C@@]1(c2ccc(F)cc2)C[C@H]2CC[C@@H](C1)N2Cc1coc2ccccc12`, the Ki on D(2) dopamine receptor [4] amounted to 4.9 nM; on D(3) dopamine receptor [7], 1.2 nM.

On to `O[C@@]1(c2ccc(Br)cc2)C[C@H]2CC[C@@H](C1)N2Cc1coc2ccccc12`, for which the Ki on D(2) dopamine receptor [4] is 1.5 nM; at D(3) dopamine receptor [7] it was 0.92 nM.

As for `O[C@@]1(c2ccc(Cl)cc2)C[C@H]2CC[C@@H](C1)N2Cc1coc2ccc(F)cc12`, the inhibition constant Ki at D(2) dopamine receptor [4] came to 1.2 nM; at D(3) dopamine receptor [7], 0.37 nM.

As for `O[C@@]1(c2ccc(Cl)cc2)C[C@H]2CC[C@@H](C1)N2Cc1coc2ccc3ccccc3c12`, the Ki came to 11.7 nM at D(2) dopamine receptor [4] and 8.4 nM at D(3) dopamine receptor [7].

`O[C@@]1(c2ccc(Cl)cc2)C[C@H]2CC[C@@H](C1)N2Cc1coc2c1ccc1ccccc12`: the Ki at D(2) dopamine receptor [4] came to 5.6 nM; on D(3) dopamine receptor [7] it was 2 nM.

As for `O[C@@]1(c2ccc(Cl)c(Cl)c2)C[C@H]2CC[C@@H](C1)N2Cc1coc2ccc(F)cc12`, the Ki worked out at 1.4 nM at D(2) dopamine receptor [4] and 0.53 nM on D(3) dopamine receptor [7].

On to `OC1(c2ccc(Cl)cc2)CCN(Cc2c[nH]c3ccccc23)CC1`, for which 90.4 nM corresponded to half-maximal inhibition against D(3) dopamine receptor [3] (IC50). Besides, the affinity at D(4) dopamine receptor corresponds to a Ki of 1100 nM.

As to `COc1ccc2occ(CN3[C@@H]4CC[C@H]3C[C@](O)(c3ccc(Cl)cc3)C4)c2c1` (single isomer, unassigned), the Ki on D(2) dopamine receptor [4] came to 1.5 nM; on D(3) dopamine receptor [7] it was 2.1 nM.
